From US12024499B2, “Muscarinic agonists” (Heptares Therapeutics Limited, priority 2015, dated 2024) come the findings set out here.

What is called Emax is the size of the effect at its maximum, as opposed to the concentration needed.

Holding throughout (format): cell-based
Assay [1] deals with T1, human muscarinic M4 receptor (Homo sapiens, UniProt P08173).
T1 construct: expressed in transfected cells
T1 sequence (P08173 1-479): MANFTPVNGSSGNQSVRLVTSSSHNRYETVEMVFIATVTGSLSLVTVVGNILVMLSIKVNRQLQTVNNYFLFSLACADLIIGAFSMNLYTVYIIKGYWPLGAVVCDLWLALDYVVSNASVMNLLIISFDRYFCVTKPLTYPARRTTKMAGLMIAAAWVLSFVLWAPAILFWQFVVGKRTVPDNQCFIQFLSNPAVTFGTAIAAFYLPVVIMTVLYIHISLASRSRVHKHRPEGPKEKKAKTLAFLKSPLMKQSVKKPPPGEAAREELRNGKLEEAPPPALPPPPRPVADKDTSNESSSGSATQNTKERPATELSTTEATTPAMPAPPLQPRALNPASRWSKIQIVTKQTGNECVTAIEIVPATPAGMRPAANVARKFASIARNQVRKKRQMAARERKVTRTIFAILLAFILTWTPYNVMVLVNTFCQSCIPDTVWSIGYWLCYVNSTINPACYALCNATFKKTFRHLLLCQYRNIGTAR
As to the kind of experiment: Alphascreen Surefire phospho-ERK1/2 assay, M4. Particulars: for EC50: CHO cells stably expressing human M4, agonist 5 min, 37° C., read-out: pEC50 M4 (converted); for Emax: CHO, read-out: % Emax cf. ACh, M4. As to the method: (§1) ERK1/2 phosphorylation is a downstream consequence of both Gq/11 and Gi/o protein coupled receptor activation, making it highly suitable for the assessment of M1, M3 (Gq/11 coupled) and M2, M4 receptors (Gi/o coupled), rather than using different assay formats for different receptor subtypes. CHO cells stably expressing the human muscarinic M1, M2, M3 or M4 receptor were plated (25K/well) onto 96-well tissue culture plates in MEM-alpha+10% dialysed FBS. Once adhered, cells were serum-starved overnight. Agonist stimulation was performed by the addition of 5 μL agonist to the cells for 5 min (37° C.). Media was removed and 50 μL of lysis buffer added. After 15 min, a 4 μL sample was transferred to 384-well plate and 7 μL of detection mixture added. Plates were incubated for 2 h with gentle agitation in the dark and then read on a PHERAstar plate reader.
(§2) pEC50 and Emax figures were calculated from the resulting data for each receptor subtype.
(In general: In Alpha technology, singlet oxygen from a donor bead excites a nearby acceptor bead.)

Assay [2] has as its target T2, human muscarinic M1 receptor (Homo sapiens, UniProt P11229).
T2 sequence (P11229 1-460): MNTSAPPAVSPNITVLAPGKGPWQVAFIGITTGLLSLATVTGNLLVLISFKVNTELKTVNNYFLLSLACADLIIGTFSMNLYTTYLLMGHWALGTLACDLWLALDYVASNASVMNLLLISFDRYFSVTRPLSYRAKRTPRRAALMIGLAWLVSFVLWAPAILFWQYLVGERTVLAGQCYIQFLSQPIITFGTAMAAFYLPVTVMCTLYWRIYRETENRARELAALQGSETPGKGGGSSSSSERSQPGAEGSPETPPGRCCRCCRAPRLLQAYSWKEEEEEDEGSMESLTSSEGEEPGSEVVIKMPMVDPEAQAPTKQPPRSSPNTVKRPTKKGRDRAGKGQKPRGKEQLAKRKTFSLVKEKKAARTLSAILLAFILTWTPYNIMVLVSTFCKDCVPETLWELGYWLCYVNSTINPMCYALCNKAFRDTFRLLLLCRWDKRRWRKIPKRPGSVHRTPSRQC
Briefly: Alphascreen Surefire phospho-ERK1/2 assay, M1. The following applies: for EC50: CHO cells stably expressing human M1, agonist 5 min, 37° C., read-out: pEC50 M1 (converted); for Emax: CHO, read-out: % Emax cf. ACh, M1. As to the method:
as §1, §2

Assay [3] concerns the target T3, human muscarinic M3 receptor (Homo sapiens, UniProt P20309).
T3 construct: expressed in transfected cells
Briefly: Alphascreen Surefire phospho-ERK1/2 assay, M3. The following applies: for EC50: CHO cells stably expressing human M3, agonist 5 min, 37° C., read-out: pEC50 M3 (converted); for Emax: CHO, read-out: % Emax cf. ACh, M3. As to the method: as §1, §2

In assay [4] the target is T4, human muscarinic M2 receptor (Homo sapiens, UniProt P08172).
T4 sequence (P08172 1-466): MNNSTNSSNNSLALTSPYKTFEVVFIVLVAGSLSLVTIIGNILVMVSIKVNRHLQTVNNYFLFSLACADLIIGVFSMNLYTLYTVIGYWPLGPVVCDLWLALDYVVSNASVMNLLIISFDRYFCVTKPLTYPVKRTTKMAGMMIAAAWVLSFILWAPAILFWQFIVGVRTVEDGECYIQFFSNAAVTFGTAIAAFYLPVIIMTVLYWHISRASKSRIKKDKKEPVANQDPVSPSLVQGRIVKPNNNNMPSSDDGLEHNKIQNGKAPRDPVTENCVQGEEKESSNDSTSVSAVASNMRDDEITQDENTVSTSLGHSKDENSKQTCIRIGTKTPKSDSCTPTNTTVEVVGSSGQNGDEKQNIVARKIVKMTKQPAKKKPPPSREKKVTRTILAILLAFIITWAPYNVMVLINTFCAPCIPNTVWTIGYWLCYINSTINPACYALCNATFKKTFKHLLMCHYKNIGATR
As to the kind of experiment: Alphascreen Surefire phospho-ERK1/2 assay, M2. The following applies: for EC50: CHO cells stably expressing human M2, agonist 5 min, 37° C., read-out: pEC50 M2 (converted); for Emax: CHO, read-out: % Emax cf. ACh, M2. As to the method: as §1, §2

T3 sequence (P20309 whole entry): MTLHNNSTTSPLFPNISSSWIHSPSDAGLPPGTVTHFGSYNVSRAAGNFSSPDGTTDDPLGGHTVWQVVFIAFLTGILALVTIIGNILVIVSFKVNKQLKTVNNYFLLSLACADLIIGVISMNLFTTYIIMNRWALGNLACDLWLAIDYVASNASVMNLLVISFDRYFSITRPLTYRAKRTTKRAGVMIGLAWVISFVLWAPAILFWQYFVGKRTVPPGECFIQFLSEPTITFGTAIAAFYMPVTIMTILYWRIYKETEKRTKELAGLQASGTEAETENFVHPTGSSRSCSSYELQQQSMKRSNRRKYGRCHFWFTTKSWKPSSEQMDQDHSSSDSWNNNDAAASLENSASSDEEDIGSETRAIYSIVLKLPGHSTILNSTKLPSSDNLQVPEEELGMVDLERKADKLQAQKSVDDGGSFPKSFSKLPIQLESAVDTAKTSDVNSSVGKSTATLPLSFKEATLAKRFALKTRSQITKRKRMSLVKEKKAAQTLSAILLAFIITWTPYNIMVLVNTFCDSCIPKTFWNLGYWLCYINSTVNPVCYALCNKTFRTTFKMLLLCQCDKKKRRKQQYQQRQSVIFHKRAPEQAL

For `CCOC(=O)N1CCC2(CC(N3CCC(N4CC(F)(F)C4)CC3)C2)C1` (single isomer, unassigned) [Example 1-1, Ethyl 2-[4-(3,3-difluoroazetidin-1-yl)piperidin-1-yl]-6-azaspiro[3.4]octane-6-carboxylate], in assay [1], the EC50 is 158 nM and the Emax stood at 26%. In addition, in assay [2], the EC50 was 1000 nM and the maximal response (Emax) was determined as 24%.

Consider `CCOC(=O)N1CCC2(CC(N3CCC(N4C(=O)C[C@H]4CC)CC3)C2)C1` (single isomer, unassigned) [Example 1-7], for which the EC50 is 79.4 nM in assay [1], over 20000 nM in assay [3], 794 nM in assay [2] and 501 nM in assay [4]. For the same compound, the maximal effect (Emax) came out at 101% in assay [1], 21% in assay [3], 94% in assay [2] and 26% in assay [4].

On to `CCOC(=O)N1CCC2(CC(N3CCC(N4C(=O)C[C@@H]4C)CC3)C2)C1` (single isomer, unassigned) [Example 1-4], for which, in assay [1], the EC50 is 158 nM and the Emax turned out to be 41%. In addition, in assay [2], the EC50 was over 20000 nM and the Emax turned out to be 18%.

On to `CCOC(=O)N1CCC2(CC(N3CCC(N4C(=O)C[C@H]4C)CC3)C2)C1` (single isomer, unassigned) [Example 1-6], for which, in assay [1], the EC50 is 251 nM and the Emax is 74%. Moreover, in assay [2], the EC50 was over 20000 nM and the Emax was determined as 13%.

Turning to `CCOC(=O)N1CCC2(CC(N3CCC(N4C(=O)C[C@@H]4CC)CC3)C2)C1` (single isomer, unassigned) [Example 1-5], the EC50 in assay [1] was 100 nM; in assay [3] it was over 20000 nM; in assay [2], 316 nM; in assay [4] it was over 20000 nM. Further, the Emax was 56% in assay [1], 0% in assay [3], 69% in assay [2] and 37% in assay [4].

`CCOC(=O)N1CCC2(CC(N3CCC(N4CCC4=O)CC3)C2)C1` (single isomer, unassigned) [Example 1-3, Ethyl 2-[4-(2-oxoazetidin-1-yl)piperidin-1-yl]-6-azaspiro[3.4]octane-6-carboxylate]: in assay [1], the EC50 was 200 nM and the maximum response (Emax) was determined as 23%. In addition, in assay [2], the EC50 is over 20000 nM and the Emax was 20%.

Take `CCOC(=O)N1CCC2(CC(N3CCC(N4CC[C@@H]4C(=O)OC)CC3)C2)C1` (single isomer, unassigned) [Example 1-2]: the EC50 was 63.1 nM in assay [1], over 20000 nM in assay [3], over 20000 nM in assay [2] and over 20000 nM in assay [4]. In addition, the maximal response (Emax) was found to be 67% in assay [1], 7% in assay [3], 37% in assay [2] and 7% in assay [4].
